Where “and” joins values, the source holds several entries; their conditions need not be identical. Identical values can stand only once. Like-named read-outs stand apart in the source and are kept apart here. *1 amine or outer side, *2 acyl side, *3 side chain or, on linkers, in order; H or OH if unused. Where a SMILES comes first, the peptide text is derived from it. [ ]: non-standard residue; d: D form. ξ: configuration not given here. ξNMeVal(3-OH) = CNC(C(=O)O)C(C)(C)O; NMeF = CN[CH](Cc1ccccc1)C(=O)O; X1 = CCC(C)C(O[*:1])C(=O)[*:2]; NMeV = CN[CH](C(=O)O)C(C)C
How the values were obtained:
Botrytis cinerea = assay: Liquid culture test in well plates: Botrytis cinerea (Gray mould), Example 1-1; assay type: cell-based
Protocol: (§1) Mycelia fragments or conidia suspensions of a fungus, prepared either freshly from liquid cultures of the fungus or from cryogenic storage, are directly mixed into nutrient broth. DMSO solutions of the test compound (max. 10 mg/mL) is diluted with 0.025% Tween20 by factor 50 and 10 μL of this solution is pipetted into a microtiter plate (96-well format). […] The test plates are incubated in the dark at 24° C. and 96% relative humidity (rh). The inhibition of fungal growth is determined photometrically and visually after 3-7 days, depending on the pathosystem, and percent antifungal activity relative to the untreated check is calculated.
Conidia of the fungus from cryogenic storage were directly mixed into nutrient broth (PDB potato dextrose broth). After placing a DMSO solution of the test compositions into a microtiter plate (96-well format), the nutrient broth containing the fungal spores was added.

Alternaria solani = assay: Liquid culture test in well plates: Alternaria solani (early blight of tomato/potato), Example 1-2; assay type: cell-based; settings: for inhibition at 0.0012 ppm: component (B) alone at 0.0012 ppm
Protocol: as §1, with “The inhibition of fungal growth is determined photometrically and visually after 3-7 days, depending on the pathosystem, and percent antifungal activity relative to the untreated check is calculated.” left out
Conidia of the fungus from cryogenic storage were directly mixed into nutrient broth (PDB potato dextrose broth). After placing a DMSO solution of the test compositions into a microtiter plate (96-well format) the nutrient broth containing the fungal spores was added.

[1] = Botrytis cinerea, component (B) alone at 0.0006 ppm, 72 hours, read-out: (B) inhibition
[2] = Botrytis cinerea, component (B) alone at 0.0012 ppm, 72 hours, read-out: (B) inhibition
[3] = Botrytis cinerea, component (B) alone at 0.0025 ppm, 72 hours
[4] = component (B) alone at 0.0003 ppm, 72 hours
[5] = Botrytis cinerea, component (B) alone at 0.0050 ppm, 72 hours
[6] = Alternaria solani, component (B) alone at 0.0025 ppm, 48 hours, read-out: (B) inhibition
[7] = component (B) alone at 0.0006 ppm, 72 hours
[8] = component (B) alone at 0.0012 ppm, 72 hours
[9] = component (B) alone at 0.0050 ppm, 72 hours
[10] = component (B) alone at 0.0050 ppm, 48 hours
[11] = Botrytis cinerea, component (B) alone at 0.0003 ppm, 72 hours

`Cc1cccc2c1ncn2C1=NC(C)(C)C(F)(F)c2cc(Cl)ccc21` [B-10, 6-chloro-4,4-difluoro-3,3-dimethyl-1-(4-methylbenzimidazol-1-yl)isoquinoline] gave an inhibition at 0.0006 ppm (Botrytis cinerea; [1]) of 21%, an inhibition at 0.0012 ppm (Botrytis cinerea; [2]) of 39% and an inhibition at 0.0025 ppm (Botrytis cinerea; [3]) of 49%.
For `CC1(C)N=C(c2cnc3ccccc3c2)c2ccccc2C1(F)F` [B-1, quinofumelin], the “(B) inhibition” value (Botrytis cinerea; [4]) was 27% and the “(B) inhibition” value (Botrytis cinerea; component (B) alone at 0.0005 ppm, 72 hours) was 37%.
`CCC(C)C1NC(=O)C2CCCN2C(=O)C(Cc2ccccc2)N(C)C(=O)C(Cc2ccccc2)NC(=O)C(C(C)C)N(C)C(=O)C(C(C)CC)OC(=O)C(C(C)(C)O)N(C)C(=O)C(CC(C)C)NC(=O)C(C(C)C)N(C)C1=O` (stereo not shown) [Aureobasidin A] (cyclo([ξNMeVal(3-OH)][X1][NMeV]F[NMeF]PI[NMeV]L); configuration not given here) was tested, and the “(A) inhibition” value (Botrytis cinerea; Aureobasidin A (A) alone at 0.0003 ppm, 72 hours) was 9% and 1%, the “(A) inhibition” value (Botrytis cinerea; Aureobasidin A (A) alone at 0.0006 ppm, 72 hours) was 6% and the “(A) inhibition” value (Botrytis cinerea; Aureobasidin A (A) alone at 0.0200 ppm, 72 hours) was 32%. It also gave an inhibition at 0.0002 ppm (Botrytis cinerea; Botrytis cinerea, 72 h, read-out: (A) inhibition, Aureobasidin A (A) alone at 0.0002 ppm) of 5%, an inhibition at 0.0006 ppm (Botrytis cinerea; Botrytis cinerea, 72 h, read-out: (A) inhibition, Aureobasidin A (A) alone at 0.0006 ppm) of 9% and an inhibition at 0.0012 ppm (Botrytis cinerea; Botrytis cinerea, 72 h, read-out: (A) inhibition, Aureobasidin A (A) alone at 0.0012 ppm) of 9%. The inhibition at 0.0001 ppm (Alternaria solani; Alternaria solani, 48 h, read-out: (A) inhibition, Aureobasidin A (A) alone at 0.0001 ppm) was 9%, the inhibition at 0.0025 ppm (Alternaria solani; Alternaria solani, 48 h, read-out: (A) inhibition, Aureobasidin A (A) alone at 0.0025 ppm) was 20% and the inhibition at 0.005 ppm (Alternaria solani; Alternaria solani, 48 h, read-out: (A) inhibition, Aureobasidin A (A) alone at 0.0050 ppm) was 5%. For the same compound, the inhibition at 0.01 ppm (Alternaria solani; Alternaria solani, 48 h, read-out: (A) inhibition, Aureobasidin A (A) alone at 0.0100 ppm) was 17%, the inhibition at 0.04 ppm (Alternaria solani; Alternaria solani, 48 h, read-out: (A) inhibition, Aureobasidin A (A) alone at 0.0400 ppm) was 36% and the “(A) inhibition” value (Alternaria solani; Aureobasidin A (A) alone at 0.0050 ppm, 48 hours) was 3%. For the same compound, the “(A) inhibition” value (Alternaria solani; Aureobasidin A (A) alone at 0.0100 ppm, 48 hours) was 14%.
`Cc1ccc2c(C3=NC(C)(C)C(F)(F)c4cc(F)ccc43)cnn2c1C` [B-6, 1-(6,7-dimethylpyrazolo[1,5-a]pyridin-3-yl)-4,4,6-trifluoro-3,3-dimethyl-isoquinoline] showed an inhibition at 0.0006 ppm (Botrytis cinerea; [1]) of 25%, an inhibition at 0.0012 ppm (Botrytis cinerea; [2]) of 34% and an inhibition at 0.0025 ppm (Botrytis cinerea; [3]) of 68%. For the same compound, the inhibition at 0.005 ppm (Botrytis cinerea; [5]) was 84%, the inhibition at 0.0006 ppm (Alternaria solani; Alternaria solani, component (B) alone at 0.0006 ppm, 48 hours) was 22% and the inhibition at 0.0012 ppm (Alternaria solani; Alternaria solani, 48 hours) was 39%. The inhibition at 0.0025 ppm (Alternaria solani; [6]) was 59%.
With “N-[(1R)-1-benzyl-3,3,3-trifluoro-1-methyl-propyl]-8-fluoro-quinoline-3-carboxamide/N-[(1S)-1-benzyl-3,3,3-trifluoro-1-methyl-propyl]-8-fluoro-quinoline-3-carboxamide [B-3]” the “(B) inhibition” value (Botrytis cinerea; [7]) was 10%, the “(B) inhibition” value (Botrytis cinerea; [8]) was 32% and the “(B) inhibition” value (Botrytis cinerea; [9]) was 52%.
`Cc1cccc2c(C3=NC(C)(C)C(F)(F)c4ccccc43)cnn12` [B-7, 4,4-difluoro-3,3-dimethyl-1-(7-methylpyrazolo[1,5-a]pyridin-3-yl)isoquinoline] showed an inhibition at 0.0006 ppm (Botrytis cinerea; [1]) of 18%, an inhibition at 0.0012 ppm (Botrytis cinerea; [2]) of 40% and an inhibition at 0.01 ppm (Alternaria solani; Alternaria solani, component (B) alone at 0.0100 ppm, 48 hours, read-out: (B) inhibition) of 63%.
`Cc1ccc2c(C3=NC(C)(C)C(F)(F)c4c(F)cccc43)cnn2c1C` [B-5, 1-(6,7-dimethylpyrazolo[1,5-a]pyridin-3-yl)-4,4,5-trifluoro-3,3-dimethyl-isoquinoline] showed an inhibition at 0.0006 ppm (Botrytis cinerea; [1]) of 17%, an inhibition at 0.0012 ppm (Botrytis cinerea; [2]) of 40% and an inhibition at 0.0025 ppm (Botrytis cinerea; [3]) of 57%. It also gave an inhibition at 0.005 ppm (Botrytis cinerea; [5]) of 75%, an inhibition at 0.0012 ppm (Alternaria solani; Alternaria solani, 48 hours) of 30% and an inhibition at 0.0025 ppm (Alternaria solani; [6]) of 56%.
“N-[(1R)-1-benzyl-3-chloro-1-methyl-but-3-enyl]-8-fluoro-quinoline-3-carboxamide/N-[(1S)-1-benzyl-3-chloro-1-methyl-but-3-enyl]-8-fluoro-quinoline-3-carboxamide [B-4]” was tested, and the “(B) inhibition” value (Botrytis cinerea; [7]) was 33%, the “(B) inhibition” value (Botrytis cinerea; [8]) was 46% and the “(B) inhibition” value (Botrytis cinerea; component (B) alone at 0.0025 ppm, 72 hours) was 60%. The “(B) inhibition” value (Alternaria solani; [10]) was 32%.
`Cc1ccc2c(ncn2C2=NC(C)(C)C(F)(F)c3ccccc32)c1C` [B-9, 1-(4,5-dimethylbenzimidazol-1-yl)-4,4-difluoro-3,3-dimethyl-isoquinoline] gave an inhibition at 0.0003 ppm (Botrytis cinerea; [11]) of 9%, an inhibition at 0.0006 ppm (Botrytis cinerea; [1]) of 28% and an inhibition at 0.0012 ppm (Botrytis cinerea; [2]) of 45%. For the same compound, the inhibition at 0.0012 ppm (Alternaria solani; Alternaria solani, 48 hours) was 24%.
With `Cc1ccc2c(ncn2C2=NC(C)(C)C(F)(F)c3c(F)cccc32)c1C` [B-8, 1-(4,5-dimethylbenzimidazol-1-yl)-4,4,5-trifluoro-3,3-dimethyl-isoquinoline] the inhibition at 0.0003 ppm (Botrytis cinerea; [11]) was 22%, the inhibition at 0.0006 ppm (Botrytis cinerea; [1]) was 40% and the inhibition at 0.0012 ppm (Botrytis cinerea; [2]) was 50%. The inhibition at 0.0012 ppm (Alternaria solani; Alternaria solani, 48 hours) was 38%.
For “N-[(1R)-1-benzyl-1,3-dimethyl-butyl]-8-fluoro-quinoline-3-carboxamide/N-[(1S)-1-benzyl-1,3-dimethyl-butyl]-8-fluoro-quinoline-3-carboxamide [B-2]”, the “(B) inhibition” value (Botrytis cinerea; [4]) was 2%, the “(B) inhibition” value (Botrytis cinerea; [7]) was 35% and the “(B) inhibition” value (Botrytis cinerea; [9]) was 70%. The “(B) inhibition” value (Alternaria solani; component (B) alone at 0.0025 ppm, 48 hours) was 0%, the “(B) inhibition” value (Alternaria solani; [10]) was 10% and the “(B) inhibition” value (Alternaria solani; component (B) alone at 0.0100 ppm, 48 hours) was 52%.

Reference: patent US12527322B2, “Fungicidal compositions” (SYNGENTA CROP PROTECTION AG, priority 2020, dated 2026)
